How the values were obtained:
SR cells [1] = experiment: Apoptosis analysis (Annexin-V staining assay); format: cell-based
Method: The apoptotic analysis was performed according to the detailed description in the supporting information (SI 4)[39].
Annexin-V staining assay was applied to determine the apoptosis induced by compound 5e. […] In detail, 13.61% and 24.33% for the early phase and late phase of apoptosis, respectively, with respect to the control (0.44%, and 0.16%, respectively). Annexin V/PI staining histograms are supported in the supporting information (Figure SI 2).
(§1) SI 3. Cell cycle analysis
(§2) Leukemia SR cells were grown in six-well plates (each one contains 2 x 10^5 cells per well) containing 10% fetal bovine serum and incubated for 24 h at 37 °C and 5% CO2. The medium was replaced with (DMSO 1% v/v) containing the 3.1 µM of compound 5e, then incubated for 48 h, collected and washed with cold phosphate buffered saline (PBS). After fixation of the collected cells with ice-cold absolute ethanol (70%), the cells were rinsed with PBS then stained with the DNA fluorochrome PI, kept for 15 min at 37 °C. Then samples were analyzed with a FACS Caliber flow cytometer.
(§3) SI 4. Detection of apoptosis
(§4) Apoptotic activity of compound 5e was evaluated using Annexin V-FITC/PI apoptosis detection kit.
(§5) Leukemia SR cells ([…]) were seeded and incubated with compound 5e for 48 h, trypsinized, collected and washed with phosphate-buffered saline (PBS) several times; SR cells were stained with Annexin V fluorescein isothiocyanate (FITC) and counterstained with propidium iodide (PI) for 15 min at 37 °C in the dark using the apoptosis detection kit (BD Biosciences, San Jose, CA) according to the manufacturer's protocol. Then, Annexin V-FITC and PI binding were analysed by a FACS Caliber flow cytometer.
(§6) SI 5.1. Animals and tumor cell line
(§7) Adult female Swiss albino mice purchased from Theodor Bilharzia Research Institute, Giza, Egypt, with an average body weight of (18-23) g was used. Mice were housed under constant conditions of 12 h light/dark cycle in a […], with free access to standard laboratory mice food and water. […]

[2] = test system: Solid Ehrlich carcinoma (SEC); experiment: In vivo anti-tumour activity in SEC-bearing mice; set-up: species or system Swiss albino mice; settings: 6 mg/Kg B.W., IP
Method: The full methodology of tumour induction, treatments, and blood measurements was carried out according to the described details in the supporting information (SI 5). Moreover, the experimental protocol was approved by the Research Ethics Committee at Suez Canal University (Approval number REC139/2022, Chemistry Department, Faculty of Science, Suez Canal University). […]
as §6
Adult female Swiss albino mice purchased from Theodor Bilharzia Research Institute, Giza, Egypt, with an average body weight of (18-23) g was used. Mice were housed under constant conditions of 12 h light/dark cycle in a […], with free access to standard laboratory mice food and water.
All procedures related to care and maintenance of the animals were performed according to the international guiding principles for animal research and approved by Faculty of Science, Suez Canal University bioethics and animal ethics committee (Approval number REC-01-2022).
Solid Ehrlich carcinoma (SEC) were got from the National Cancer Institute (Cairo University, Egypt). The tumor cell line was proliferated in mice through serial intraperitoneal (I.P.) transplantation of a volume of 0.2 mL physiological saline contains 1 × 10^6 viable cells for 24 h. SEC cells were collected 7 days after I.P. implantation. The harvested cells were diluted with saline to obtain a concentration of 5 × 10^6 viable SEC cells/mL. A volume of 0.2 mL saline contains 1 × 10^6 SEC cells […]
that were I.P. implanted into each normal mouse. SEC cells (1 × 10^6 tumor cells/mouse) were implanted subcutaneously into the right thigh of the hind limb.
The experimental animals were randomly divided into four groups. Group 1 served as the normal saline control. Group 2 served as the SEC control (1 × 10^6 cells/mouse). Group 3 served as the compound-treated group (6 mg/kg B.Wt., I.P.). Group 4 received the standard anticancer drug of […]
survival were recorded daily until the 24th day in both treated and control groups. At the end of experiment, the blood of each group was collected under light anesthesia for estimation of hematological and biochemical assays. The anesthetized animals were then sacrificed for evaluation of the antitumor activity and histopathological examination.
SI 5.2. Antitumor potentiality
It includes tumor volume, weight, and tumor inhibition ration (TIR%). Time interval measurements of tumor volume using digital Vernier caliper (Tricle Brand, Shanghai, China). Measure tumor length and width using clipper and then calculate tumor volume using formulations V = (L x W x W)/2, where V is tumor volume, W is tumor width, L is tumor length. While TIR% was calculated according to the following equation: […]. […]

leukaemia SR cells = experiment: Anti-proliferative effect against SR cell line (MTT assay); format: cell-based
Method: The anti-proliferative effect of the 5e counterpart against the SR cell line was estimated using the MTT assay protocol.
Depending on the previous results, the cytotoxic activity of the designed candidate 5e was then evaluated against leukaemia SR cells. Doxorubicin was also evaluated as a reference drug.

SR cells [3] = experiment: Cell cycle analysis (propidium iodide staining); format: cell-based
Method: This test was performed using propidium iodide (PI) staining following the detailed procedure in the supporting information (SI 3)[38].
The topoisomerase II inhibitory evaluation, besides the cytotoxicity results of the new compounds, encouraged us to assess the effect of 5e (the most promising candidate) on cell cycle progression in SR cells.
as §1, §2, §3, §4, §5, §6, §7

[4] = Cytotoxic effect against normal cell line; format: cell-based; settings: human, normal cell line PSC-800-011; read-out: Cytotoxicity IC50, PSC-800-011
Method: Following, the cytotoxic effect of compound 5e against a normal cell line, PSC-800–011, was also assigned to evaluate the selectivity of the compound towards the cancer cell lines. […] However, the selectivity index (SI) of compound 5e was also calculated to confirm its selectivity. It was known that any sample that has an SI value higher than 3 will be considered to have high selectivity.

With `O=[N+]([O-])c1ccc(-c2nnc(N3c4ccccc4C=Cc4ccccc43)o2)cc1` [Compound 5e, 2-(5 h-Dibenzo[b,f]azepin-5-yl)-5–(4-nitrophenyl)-1,3,4-oxadiazole] the “Increase of the apoptosis ratio compared to the untreated cells” value (SR cells [1]; concentration equivalent to IC50 (13.05 µM), 48 h) was 37.34%, the “Late phase of apoptosis” value (SR cells [1]; concentration equivalent to IC50, control 0.16%) was 24.33% and the “Early phase of apoptosis” value (SR cells [1]; concentration equivalent to IC50, control 0.44%) was 13.61%. The “Tumour inhibition ratio (TIR%)” value [2] was 62.7%, the Solid tumour mass ([2]; SEC control 226 mg) was 96.3 mg and the Tumour volume ([2]; SEC control 80.6 mm^3) was 30.1 mm^3. The IC50 (leukaemia SR cells; Homo sapiens, leukaemia SR cells, unit as in head of Table 3, read-out: Cytotoxicity IC50, SR) was 13.1 ± 0.62 µM, the “SI (selectivity index)” value (leukaemia SR cells; normal cell line PSC-800-011 versus SR) was 3.36 and the “Cell cycle arrest phase” value (SR cells [3]) was “G1 phase”. For the same compound, the “Cell levels in G1 phase” value (SR cells [3]; 3.1 µM of compound 5e, 48 h, control 52.84%) was 61.29%, the “S phase % of the examined cells” value (SR cells [3]; 3.1 µM of compound 5e, 48 h, untreated 34.18%) was 36.86% and the IC50 [4] was 43.9 ± 2.68 µM.

Reference: publication PMC9848257, “Design and synthesis of novel rigid dibenzo[b,f]azepines through ring closure technique as promising anticancer candidates against leukaemia and acting as selective topoisomerase II inhibitors and DNA intercalators” (Journal of Enzyme Inhibition and Medicinal Chemistry, 2023)
